Assay results published in paper PMC3763447 (Cell Death & Disease, 2013).
Peptide text beside a SMILES is read from it. * marks the point of attachment. Cbz = O=C(OCc1ccccc1)*

Columns and labels:
Experiment in all cases: fluorogenic substrate
Format in all cases: biochemical
[1] = biological target: T1, 20S proteasome β1 subunit (PGPH activity) (Homo sapiens, UniProt P28072)
T1 sequence (P28072 35-239): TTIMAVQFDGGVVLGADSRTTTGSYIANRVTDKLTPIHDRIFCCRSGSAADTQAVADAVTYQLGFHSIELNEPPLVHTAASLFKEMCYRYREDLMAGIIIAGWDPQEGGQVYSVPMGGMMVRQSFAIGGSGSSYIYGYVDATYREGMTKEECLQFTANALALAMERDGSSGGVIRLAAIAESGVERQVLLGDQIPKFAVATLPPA

[2] = biological target: T2, 20S proteasome β5 subunit (chymotrypsin-like activity) (Homo sapiens, UniProt P28074)
T2 sequence (P28074 60-263): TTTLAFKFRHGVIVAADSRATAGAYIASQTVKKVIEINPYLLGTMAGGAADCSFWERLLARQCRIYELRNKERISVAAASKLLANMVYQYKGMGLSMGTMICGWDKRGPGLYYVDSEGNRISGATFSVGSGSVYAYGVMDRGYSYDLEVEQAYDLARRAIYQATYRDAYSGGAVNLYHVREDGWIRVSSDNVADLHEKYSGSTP

[3] = biological target: T1, 20S proteasome β1 subunit (PGPH activity); remark: listed apart in the source

SMILES	IC50 [1] [µM]	IC50 [2] [µM]	fluorogenic substrate (Bz-LLE-AMC) assay with purified 20S proteasome [3]
COc1ccc(O)c2c1Oc1cccc(c1)CCc1ccc(O)c(c1)Oc1ccc(cc1)CC2 [Mar, marchantin M]	5.33	6.99	
CC(C)C[C@@H](C=O)NC(=O)[C@H](CC(C)C)NC(=O)[C@H](CC(C)C)NC(=O)OCc1ccccc1 [MG132] (Cbz-Leu-Leu-Leu-aldehyde)			MG132, a known proteasome inhibitor for a positive control, showed more potent inhibition on the proteasome ChT-L and PGPH activities
